# System: patients with essential tremor
# Experiment: T-CALM: TETRAS performance subscale (TETRAS-PS)
# [1] = Day 28, independent video raters
# [2] = Independent Video Raters, subgroup Baseline TETRAS-PS Severity <=Median, N=22
# [3] = Independent Video Raters, subgroup Baseline TETRAS-PS Severity > Median, N=16
# [4] = Independent Video Raters, subgroup No Beta-blocker Use at Day 1, N=20
# [5] = Independent Video Raters, subgroup No Concurrent Tremor Medication at Day 1, N=14
# [6] = Independent Video Raters, subgroup Using Beta-blocker at Day 1, N=18
# [7] = Independent Video Raters, subgroup Using Concurrent Tremor Medication at Day 1, N=24
# [8] = Investigator Rated, subgroup Baseline TETRAS-PS Severity <=Median, N=22
# [9] = Investigator Rated, subgroup Baseline TETRAS-PS Severity > Median, N=15
# [10] = Investigator Rated, subgroup No Beta-blocker Use at Day 1, N=19
# [11] = Investigator Rated, subgroup No Concurrent Tremor Medication at Day 1, N=14
# [12] = Investigator Rated, subgroup Using Beta-blocker at Day 1, N=18
smiles,measurement,setting,value
CC(C)c1ccc(CC(=O)N[C@H](C)c2ccc(OCC(F)(F)F)cn2)cc1 [CX-8998],"Change from baseline in TETRAS-PS rated by physician, LS mean",Day 15 (8 mg BID),−3.1
same,"Change from baseline in TETRAS-PS rated by physician, LS mean",Day 28 (10 mg BID),−4.6
same,TETRAS-PS LS mean difference from placebo (95% CI),[1],"0.5 (−1.5, 2.5)"
same,"TETRAS-PS total score, Mean (SD)",[1],21.1 (6.71)
same,"TETRAS-PS total score, Median",[1],20.0
same,TETRAS-PS LS mean difference from placebo (95% CI),"Day 28, investigator rated","−2.0 (−4.0, 0.0)"
same,"TETRAS-PS total score, Median","Day 28, investigator rated",22.5
same,"TETRAS-PS Total Score change from baseline to Day 28, LS mean difference from placebo (95% CI)","Independent Video Raters, subgroup Baseline TETRAS-PS Severity <=Median","1.2 (−1.1, 3.4)"
same,"TETRAS-PS Total Score change from baseline to Day 28, LS mean (SE)",[2],−0.6 (0.82)
same,"TETRAS-PS Total Score change from baseline to Day 28, Median (minimum, maximum)",[2],"0 (−9.5, 7.0)"
same,"TETRAS-PS Total Score change from baseline to Day 28, Mean (SD)","Independent Video Raters, subgroup Baseline TETRAS-PS Severity <=Median, N=22, titrated up to 10 mg BID",−0.1 (3.98)
same,"TETRAS-PS Total Score change from baseline to Day 28, LS mean difference from placebo (95% CI)","Independent Video Raters, subgroup Baseline TETRAS-PS Severity > Median","−1.3 (−4.8, 2.3)"
same,"TETRAS-PS Total Score change from baseline to Day 28, LS mean (SE)",[3],−3.5 (1.47)
same,"TETRAS-PS Total Score change from baseline to Day 28, Mean (SD)",[3],−3.6 (4.14)
same,"TETRAS-PS Total Score change from baseline to Day 28, Median (minimum, maximum)",[3],"−3.0 (−11, 2.5)"
same,"TETRAS-PS Total Score change from baseline to Day 28, LS mean difference from placebo (95% CI)","Independent Video Raters, subgroup No Beta-blocker Use at Day 1","−1.2 (−4.3, 1.8)"
same,"TETRAS-PS Total Score change from baseline to Day 28, LS mean (SE)",[4],−1.3 (1.10)
same,"TETRAS-PS Total Score change from baseline to Day 28, Mean (SD)",[4],−1.6 (4.99)
same,"TETRAS-PS Total Score change from baseline to Day 28, Median (minimum, maximum)",[4],"−2.0 (−11, 7.0)"
same,"TETRAS-PS Total Score change from baseline to Day 28, LS mean difference from placebo (95% CI)","Independent Video Raters, subgroup No Concurrent Tremor Medication at Day 1","−2.0 (−5.8, 1.8)"
same,"TETRAS-PS Total Score change from baseline to Day 28, LS mean (SE)",[5],−4.3 (2.05)
same,"TETRAS-PS Total Score change from baseline to Day 28, Median (minimum, maximum)",[5],"−3.3 (−11, 7.0)"
same,"TETRAS-PS Total Score change from baseline to Day 28, LS mean difference from placebo (95% CI)","Independent Video Raters, subgroup Using Beta-blocker at Day 1","1.4 (−1.4, 4.3)"
same,"TETRAS-PS Total Score change from baseline to Day 28, LS mean (SE)",[6],−2.5 (1.36)
same,"TETRAS-PS Total Score change from baseline to Day 28, Mean (SD)",[6],−1.5 (3.68)
same,"TETRAS-PS Total Score change from baseline to Day 28, Median (minimum, maximum)",[6],"−1.3 (−9.5, 4.0)"
same,"TETRAS-PS Total Score change from baseline to Day 28, LS mean difference from placebo (95% CI)","Independent Video Raters, subgroup Using Concurrent Tremor Medication at Day 1","1.8 (−0.7, 4.3)"
same,"TETRAS-PS Total Score change from baseline to Day 28, LS mean (SE)",[7],−1.6 (1.14)
same,"TETRAS-PS Total Score change from baseline to Day 28, Mean (SD)",[7],−1.1 (3.71)
same,"TETRAS-PS Total Score change from baseline to Day 28, Median (minimum, maximum)",[7],"−1.3 (−9.5, 5.5)"
same,"TETRAS-PS Total Score change from baseline to Day 28, LS mean difference from placebo (95% CI)","Investigator Rated, subgroup Baseline TETRAS-PS Severity <=Median","−1.2 (−3.1, 0.6)"
same,"TETRAS-PS Total Score change from baseline to Day 28, LS mean (SE)",[8],−3.8 (0.67)
same,"TETRAS-PS Total Score change from baseline to Day 28, Mean (SD)",[8],−3.4 (3.74)
same,"TETRAS-PS Total Score change from baseline to Day 28, Median (minimum, maximum)",[8],"−3.0 (−13.5, 1.0)"
same,"TETRAS-PS Total Score change from baseline to Day 28, LS mean difference from placebo (95% CI)","Investigator Rated, subgroup Baseline TETRAS-PS Severity > Median","−3.5 (−7.4, 0.4)"
same,"TETRAS-PS Total Score change from baseline to Day 28, LS mean (SE)",[9],−5.6 (1.60)
same,"TETRAS-PS Total Score change from baseline to Day 28, Mean (SD)",[9],−5.8 (4.48)
same,"TETRAS-PS Total Score change from baseline to Day 28, Median (minimum, maximum)",[9],"−6.0 (−13, 4.5)"
same,"TETRAS-PS Total Score change from baseline to Day 28, LS mean difference from placebo (95% CI)","Investigator Rated, subgroup No Beta-blocker Use at Day 1","−4.3 (−7.0, −1.7)"
same,"TETRAS-PS Total Score change from baseline to Day 28, LS mean (SE)",[10],−5.6 (0.97)
same,"TETRAS-PS Total Score change from baseline to Day 28, Mean (SD)",[10],−4.5 (3.89)
same,"TETRAS-PS Total Score change from baseline to Day 28, Median (minimum, maximum)",[10],"−4.0 (−12.4, 1.0)"
same,"TETRAS-PS Total Score change from baseline to Day 28, LS mean difference from placebo (95% CI)","Investigator Rated, subgroup No Concurrent Tremor Medication at Day 1","−4.4 (−7.4, −1.3)"
same,"TETRAS-PS Total Score change from baseline to Day 28, LS mean (SE)",[11],−6.2 (1.60)
same,"TETRAS-PS Total Score change from baseline to Day 28, Mean (SD)",[11],−5.0 (3.97)
same,"TETRAS-PS Total Score change from baseline to Day 28, Median (minimum, maximum)",[11],"−4.5 (−12.5, 1.0)"
same,"TETRAS-PS Total Score change from baseline to Day 28, LS mean difference from placebo (95% CI)","Investigator Rated, subgroup Using Beta-blocker at Day 1","−0.3 (−3.6, 3.0)"
same,"TETRAS-PS Total Score change from baseline to Day 28, LS mean (SE)",[12],−3.6 (1.56)
same,"TETRAS-PS Total Score change from baseline to Day 28, Mean (SD)",[12],−4.2 (4.55)
same,"TETRAS-PS Total Score change from baseline to Day 28, Median (minimum, maximum)",[12],"−4.0 (−13.5, 4.5)"
